One assay addresses human mPGES-1 (Homo sapiens (Human), UniProt O14684). The assay can be described thus: mPGES-1 inhibiting activity (microsome fractions, PGE2 by HTRF). The class given is biochemical. The note with it: microsomes from CHO-K1 cells transfected with human mPGES-1; PGH2 1 μM, 4° C., 60 seconds; read-out: mPGES-1 Inhibition IC50. The procedure, abridged: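 PGE2 formation read by HTRF after 60 s at 4 °C with 1 μM PGH2 substrate, following 20 min compound preincubation (1% DMSO) with human mPGES-1 microsomes from transfected CHO-K1 cells. Buffer: potassium phosphate, reduced glutathione, pH 7.4; IC50 from activity relative to enzyme-free blank.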

In a further assay the test system is A549 cells. In words: Inhibition of PGE2 production in A549 cell (IL-1β stimulated). Format: cell-based, human. The conditions noted are these: Homo sapiens, A549, 24 h, IL-1β 5 ng/well, PGE2 in culture medium. The procedure, abridged:
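After IL-1β (5 ng/well) stimulation for 24 h at 37 °C, following a 60-min compound pretreatment in RPMI with 3% FBS, medium PGE2 (HTRF) and PGF2α (EIA) from human A549 cells were quantified. 100% activity set as IL-1β-induced minus basal production; IC50 calculated.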

Counter-ions that a name gives are not always drawn.

We go through 24 molecules from US9216968B2, “Heterocyclic derivative and pharmaceutical drug” (NIPPON SHINYAKU CO., LTD., priority 2011, dated 2015).

human mPGES-1, sequence (O14684 whole entry): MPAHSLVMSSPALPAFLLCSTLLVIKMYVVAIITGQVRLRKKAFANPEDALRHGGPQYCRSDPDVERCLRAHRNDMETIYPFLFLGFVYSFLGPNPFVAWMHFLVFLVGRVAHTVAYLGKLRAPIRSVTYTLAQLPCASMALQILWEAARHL

The term IC50 denotes the concentration at which inhibition is half-maximal. In the case of `Cc1c(Cl)cccc1NC(=O)c1cc(NC(=O)c2ccccc2C(F)(F)F)cc2[nH]c(NCCN3CCOCC3)nc12` [Example 146, N-(3-Chloro-2-methylphenyl)-2-{[2-(morpholin-4-yl)ethyl]amino}-6-({[2-(trifluoromethyl)phenyl]carbonyl}amino)-1H-benzimidazole-4-carboxamide hydrochloride], the IC50 came out at 3.1 nM on human mPGES-1 and 129 nM with A549 cells.
Turning to `Cc1c(Cl)cccc1NC(=O)c1cc(NC(=O)c2ccccc2C(F)(F)F)cc2[nH]c(NC3CCCC3)nc12` [Example 141, N-(3-Chloro-2-methylphenyl)-2-(cyclopentylamino)-6-({[2-(trifluoromethyl)phenyl]carbonyl}amino)-1H-benzimidazole-4-carboxamide hydrochloride], the half-maximal inhibitory concentration (IC50) on human mPGES-1 was 0.4 nM; with A549 cells it was 36.5 nM.
Regarding `Cc1c(Cl)cccc1NC(=O)c1cc(NC(=O)c2c(Cl)cccc2Br)cc2[nH]c(N(C)C)nc12` [Example 187, 6-{[(2-Bromo-6-chlorophenyl)carbonyl]amino}-N-(3-chloro-2-methylphenyl)-2-(dimethylamino)-1H-benzimidazole-4-carboxamide hydrochloride], the IC50 on human mPGES-1 came out at 3.6 nM; in the assay on A549 cells, 12.7 nM.
Turning to `CC(C)Cc1nc2c(C(=O)NCc3ccccc3C(F)(F)F)cc(NC(=O)c3ccccc3C(F)(F)F)cc2[nH]1` [Example 60, 2-(2-Methylpropyl)-N-[2-(trifluoromethyl)benzyl]-6-({[2-(trifluoromethyl)phenyl]carbonyl}amino)-1H-benzimidazole-4-carboxamide hydrochloride], the IC50 was 19.8 nM on human mPGES-1 and 8 nM in the assay with A549 cells.
Regarding `CCCCOc1ccc(Cl)c(C(=O)Nc2cc(C(=O)Nc3cccc(Cl)c3C)c3nc(COC)[nH]c3c2)c1` [Example 247, 6-{[(5-Butoxy-2-chlorophenyl)carbonyl]amino}-N-(3-chloro-2-methylphenyl)-2-(methoxymethyl)-1H-benzimidazole-4-carboxamide hydrochloride], the figures for the IC50 on human mPGES-1 and in the assay on A549 cells were 68.4 nM and 55 nM, respectively.
Regarding `COCc1nc2c(C(=O)Nc3cccc(Cl)c3C)cc(NC(=O)c3ccccc3C(F)(F)F)cc2n1C` [Example 90, N-(3-Chloro-2-methylphenyl)-2-(methoxymethyl)-1-methyl-6-({[2-(trifluoromethyl)phenyl]carbonyl}amino)-1H-benzimidazole-4-carboxamide], the figures for the concentration for half-maximal inhibition (IC50) at human mPGES-1 and in the assay on A549 cells were 118 nM and 348 nM, respectively.
Consider `CCOc1nc2c(C(=O)Nc3cccc(Cl)c3C)cc(NC(=O)c3ccccc3C(F)(F)F)cc2[nH]1` [Example 55, N-(3-Chloro-2-methylphenyl)-2-ethoxy-6-({[2-(trifluoromethyl)phenyl]carbonyl}amino)-1H-benzimidazole-4-carboxamide], for which the IC50 at human mPGES-1 amounted to 2.7 nM; in the assay with A549 cells it was 64.3 nM.
For `CC(=O)N1CCC[C@H]1c1nc2c(C(=O)Nc3cccc(Cl)c3C)cc(NC(=O)c3ccccc3C(F)(F)F)cc2[nH]1` [Example 73, 2-[(2S)-1-Acetylpyrrolidin-2-yl]-N-(3-chloro-2-methylphenyl)-6-({[2-(trifluoromethyl)phenyl]carbonyl}amino)-1H-benzimidazole-4-carboxamide], the IC50 came out at 18.6 nM at human mPGES-1 and 76.4 nM in the assay on A549 cells.
`CNc1nc2c(C(=O)Nc3cccc(Cl)c3C)cc(NC(=O)c3ccccc3C(F)(F)F)cc2[nH]1` [Example 138, N-(3-Chloro-2-methylphenyl)-2-(methylamino)-6-({[2-(trifluoromethyl)phenyl]carbonyl}amino)-1H-benzimidazole-4-carboxamide hydrochloride]: the IC50 amounted to 2.2 nM on human mPGES-1 and 87.4 nM in the assay with A549 cells.
As for `Cc1c(Cl)cccc1NC(=O)c1cc(NC(=O)c2cc(Cl)ccc2Cl)cc2[nH]c(C3(C)CC3)nc12` [Example 210, N-(3-Chloro-2-methylphenyl)-6-{[(2,5-dichlorophenyl)carbonyl]amino}-2-(1-methylcyclopropyl)-1H-benzimidazole-4-carboxamide hydrochloride], the half-maximal inhibitory concentration (IC50) on human mPGES-1 is 4.7 nM; in the assay with A549 cells it was 13.8 nM.
On to `Cc1c(Cl)cccc1NC(=O)c1cc(NC(=O)c2ccccc2C(F)(F)F)cc2[nH]c(N3CCOCC3)nc12` [Example 156, N-(3-Chloro-2-methylphenyl)-2-(morpholin-4-yl)-6-({[2-(trifluoromethyl)phenyl]carbonyl}amino)-1H-benzimidazole-4-carboxamide], for which the figures for the IC50 on human mPGES-1 and with A549 cells were 1.6 nM and 24.6 nM, respectively.
As for `Cc1c(Cl)cccc1NC(=O)c1cc(NC(=O)c2cc(Cl)ccc2Cl)cc2[nH]c(C3CC3)nc12` [Example 208, N-(3-Chloro-2-methylphenyl)-2-cyclopropyl-6-{[(2,5-dichlorophenyl)carbonyl]amino}-1H-benzimidazole-4-carboxamide hydrochloride], the half-inhibitory concentration (IC50) was found to be 0.7 nM on human mPGES-1 and 13 nM in the assay with A549 cells.
The matching figures for `COCc1nc2c(C(=O)Nc3cccc(Cl)c3C)cc(NC(=O)c3c(Cl)cccc3Cl)cc2[nH]1` [Example 98, N-(3-Chloro-2-methylphenyl)-6-{[(2,6-dichlorophenyl)carbonyl]amino}-2-(methoxymethyl)-1H-benzimidazole-4-carboxamide hydrochloride]: 6 nM and 11.9 nM.
The matching figures for `CN(C)c1nc2c(C(=O)Nc3ccc4c(c3)CCC4)cc(NC(=O)c3ccccc3C(F)(F)F)cc2[nH]1` [Example 204, N-(2,3-Dihydro-1H-inden-5-yl)-2-(dimethylamino)-6-({[2-(trifluoromethyl)phenyl]carbonyl}amino)-1H-benzimidazole-4-carb oxamide hydrochloride]: 1 nM and 12.2 nM.
As to `COCc1nc2c(C(=O)Nc3cccc(Cl)c3C)cc(NC(=O)c3cc(CCCOC(C)(C)C)ccc3Cl)cc2[nH]1` [Example 118, 6-({[5-(3-tert-Butoxypropyl)-2-chlorophenyl]carbonyl}amino)-N-(3-chloro-2-methylphenyl)-2-(methoxymethyl)-1H-benzimidazole-4-carboxamide hydrochloride], the IC50 on human mPGES-1 turned out to be 7.3 nM; in the assay with A549 cells, 5.3 nM.
On to `Cc1c(Cl)cccc1NC(=O)c1cc(NC(=O)c2ccccc2C(F)(F)F)cc2[nH]c(S(C)(=O)=O)nc12` [Example 180, N-(3-Chloro-2-methylphenyl)-2-(methylsulfonyl)-6-({[2-(trifluoromethyl)phenyl]carbonyl}amino)-1H-benzimidazole-4-carboxamide], for which the IC50 is 1.1 nM on human mPGES-1 and 774 nM with A549 cells.
The matching figures for `Cc1c(Cl)cccc1NC(=O)c1cc(NC(=O)c2c(Cl)cccc2Cl)cc2[nH]c([C@H]3CCCO3)nc12` [Example 128, N-(3-Chloro-2-methylphenyl)-6-{[(2,6-dichlorophenyl)carbonyl]amino}-2-[(2R)-tetrahydrofuran-2-yl]-1H-benzimidazole-4-carboxamide hydrochloride]: 1 nM and 253 nM.
The like results for `COCc1nc2c(C(=O)Nc3ccccc3F)cc(NC(=O)c3ccccc3C(F)(F)F)cc2[nH]1` [Example 35, N-(2-Fluorophenyl)-2-(methoxymethyl)-6-({[2-(trifluoromethyl)phenyl]carbonyl}amino)-1H-benzimidazole-4-carboxamide] were, in that order, 20.3 nM and 205 nM.
Consider `CC(=O)OCc1nc2c(C(=O)Nc3cccc(Cl)c3C)cc(NC(=O)c3ccccc3C(F)(F)F)cc2[nH]1` [Example 63, {4-[(3-Chloro-2-methylphenyl)carbamoyl]-6-({[2-(trifluoromethyl)phenyl]carbonyl}amino)-1H-benzimidazol-2-yl}methyl acetate], for which the values for the IC50 at human mPGES-1 and in the assay with A549 cells were 5.6 nM and 54.8 nM, respectively.
As to `Cc1nc2c(C(=O)NC3CCCC3)cc(NC(=O)c3ccccc3C(F)(F)F)cc2[nH]1` [Example 15, N-Cyclopentyl-2-methyl-6-({[2-(trifluoromethyl)phenyl]carbonyl}amino)-1H-benzimidazole-4-carboxamide], the IC50 worked out at 37.4 nM on human mPGES-1 and 465 nM in the assay on A549 cells.
Take `Cc1c(Cl)cccc1NC(=O)c1cc(NC(=O)c2ccccc2C(F)(F)F)cc2[nH]c(NCCCN(C)C)nc12` [Example 153, N-(3-Chloro-2-methylphenyl)-2-{[3-(dimethylamino)propyl]amino}-6-({[2-(trifluoromethyl)phenyl]carbonyl}amino)-1H-benzimidazole-4-carboxamide hydrochloride]: the IC50 at human mPGES-1 came out at 22.3 nM; with A549 cells, 618 nM.
Consider `CNCc1nc2c(C(=O)Nc3cccc(Cl)c3C)cc(NC(=O)c3ccccc3C(F)(F)F)cc2[nH]1` [Example 62, N-(3-Chloro-2-methylphenyl)-2-[(methylamino)methyl]-6-({[2-(trifluoromethyl)phenyl]carbonyl}amino)-1H-benzimidazole-4-carboxamide dihydrochloride], for which the figures for the concentration for half-maximal inhibition (IC50) on human mPGES-1 and with A549 cells were 11 nM and 51.6 nM, respectively.
Turning to `COCc1nc2c(C(=O)Nc3cccc(Cl)c3C)cc(NC(=O)c3cc(Cl)ccc3Cl)cc2[nH]1` [Example 99, N-(3-Chloro-2-methylphenyl)-6-{[(2,5-dichlorophenyl)carbonyl]amino}-2-(methoxymethyl)-1H-benzimidazole-4-carboxamide hydrochloride], the IC50 on human mPGES-1 is 3.7 nM; in the assay on A549 cells, 18.9 nM.
As to `Cc1c(Cl)cccc1NC(=O)c1cc(NC(=O)c2ccccc2C(F)(F)F)cc2[nH]c(CN(C)C)nc12` [Example 58, N-(3-Chloro-2-methylphenyl)-2-[(dimethylamino)methyl]-6-({[2-(trifluoromethyl)phenyl]carbonyl}amino)-1H-benzimidazole-4-carboxamide hydrochloride], the IC50 was 5.4 nM on human mPGES-1 and 157 nM in the assay with A549 cells.
